Experimental data published in patent US10137106B2, “Compositions and methods to treat niemann-pick disease” (Blanchette Rockefeller Neurosciences Institute, Inc., priority 2014, dated 2018).

Legend:
Format in all cases: cell-based
PKC ε [1] = target: T1, PKC ε (Homo sapiens, UniProt Q02156); test: PKC ε activation (membrane translocation, immunoblot) in primary human neurons; set-up: host or cells: primary human cortical neurons
T1 sequence (Q02156 1-737): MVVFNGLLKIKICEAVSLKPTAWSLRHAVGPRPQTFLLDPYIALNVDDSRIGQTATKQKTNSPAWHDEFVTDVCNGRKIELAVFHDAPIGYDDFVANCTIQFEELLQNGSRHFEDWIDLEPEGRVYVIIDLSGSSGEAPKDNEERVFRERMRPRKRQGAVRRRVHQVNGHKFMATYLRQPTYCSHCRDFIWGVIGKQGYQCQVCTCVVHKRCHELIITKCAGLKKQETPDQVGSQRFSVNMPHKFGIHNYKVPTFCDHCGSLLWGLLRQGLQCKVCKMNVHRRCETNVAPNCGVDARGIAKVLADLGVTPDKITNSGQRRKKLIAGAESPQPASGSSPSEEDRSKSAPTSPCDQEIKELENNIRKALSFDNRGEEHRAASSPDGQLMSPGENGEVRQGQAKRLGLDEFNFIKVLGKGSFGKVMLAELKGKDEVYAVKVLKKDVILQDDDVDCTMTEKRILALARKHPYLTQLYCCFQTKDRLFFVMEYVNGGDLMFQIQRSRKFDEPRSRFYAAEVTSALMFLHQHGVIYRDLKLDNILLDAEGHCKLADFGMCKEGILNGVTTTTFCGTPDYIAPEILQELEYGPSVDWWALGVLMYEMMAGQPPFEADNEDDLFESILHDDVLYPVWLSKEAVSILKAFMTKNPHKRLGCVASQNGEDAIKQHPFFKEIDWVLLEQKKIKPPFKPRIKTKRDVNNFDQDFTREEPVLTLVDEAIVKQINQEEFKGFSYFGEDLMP
Procedure: PKC isozyme activation by bryostatin-1 at various concentrations in primary human neurons was evaluated. One month old primary human neurons were treated with 0 nM, 0.060 nM, 0.125 nM, 0.25 nM, 0.5 nM and 1.0 nM bryostatin 1 for 24 hr. Neurons were separated into soluble and membrane fractions and immunoblotted against PKC α and PKC ε. PKC activation was measured as the percentage of total protein in the membrane and reported as percentage of control. PKC staining levels were measured densitometrically. Data are represented as mean±SE of three independent experiments (Students t-test, *P<0.05 and **P<0.005).
PKC isozyme activation by bryostatin-1 at 0.25 nM in primary human neurons was evaluated. One month old primary human neurons were treated with ethanol (C), bryostatin 1 (0.25 nM) for 1 hr, 4 hr and 24 hr. Neurons were separated into soluble (S) and membrane (P) fractions and immunoblotted against PKC α, PKC ε and PKC δ. PKC activation was measured as the percentage of total protein in the membrane and reported as percentage of control. PKC staining levels were measured densitometrically.
Culture of primary human cortical neurons: Human primary neurons (ScienCell Research Laboratories, Carlsbad, Calif., USA) were plated on poly-L-lysine coated plates and were maintained in neuronal medium (ScienCell Research Laboratories, Carlsbad, Calif., USA) supplemented with the neuronal growth supplement (NGS, ScienCell Research Laboratories, Carlsbad, Calif., USA). For maintenance of neurons, half of the media was changed every 3 days. Fresh activators were added with every media change.
(§1) Cell lysis and Western blot analysis: Cells were harvested in homogenizing buffer (HB) containing 10 mM Tris-Cl (pH 7.4), 1 mM PMSF (phenylmethylsulfonylfluoride), 1 mM EGTA, 1 mM EDTA, 50 mM NaF and 20 μM leupeptin, and were lysed by sonication. The homogenate was centrifuged at 100,000×g for 15 min at 4° C. to obtain the cytosolic fraction (supernatant) and membrane (pellet). The pellet was resuspended in the HB by sonication. Protein concentration was measured using the Coomassie Plus (Bradford) Protein Assay kit (Pierce, Rockford, Ill., USA). Following quantification, 20 μg of protein from each sample was subjected to SDS-PAGE analysis in a 4-20% gradient Tris-Glycine polyacrylamide gel (Invitrogen, Carlsbad, Calif., USA). The separated protein was then transferred to a nitrocellulose membrane. The membrane was blocked with BSA and incubated with primary antibody overnight at 4° C. […] The blot was imaged in a ImageQuant RT-ECL (GE Life Sciences, Piscataway, N.J.) and densitometric quantification was performed using IMAL software. For quantifying expression of a protein, the densitometric value for the protein of interest was normalized against beta-actin (loading control).

PKC α [2] = target: T2, PKC α (Homo sapiens, UniProt P17252); test: PKC α activation in SH-SY5Y cells (cytosol/membrane fractions, isoform-specific antibodies); details: 0.27 nM, 5-60 min (FIG. 3)
Procedure: Three independent experiments were performed for each sample.
(§2) The homogenate was centrifuged at 100,000×g for 15 min at 4° C. to obtain the cytosolic fraction (supernatant) and membrane (pellet). […] The separated protein was then transferred to a nitrocellulose membrane.

PKC ε [3] = target: T1, PKC ε; test: PKC ε activation in SH-SY5Y cells (cytosol/membrane fractions, isoform-specific antibodies); details: 0.27 nM, 5-60 min (FIG. 3)
Procedure: PKC isozyme activation by bryostatin-1 at 0.27 nM in SH-SY5Y cells was evaluated. SH-SY5Y cells are human-derived cell line and are often used as in vitro models of neuronal function and differentiation. Cells were treated with bryostatin-1 (0.27 nM) for 0, 5, 15, 30 and 60 min. Samples were fractionated into cytosol and membrane fractions and analyzed with PKC isoform-specific antibodies. Three independent experiments were performed for each sample.
Cell culture and treatments: Human SH-SY5Y neuroblastoma cells (ATCC) were cultured in 45% F12K, 45% DMEM and 10% FBS.
as §1, with “The pellet was resuspended in the HB by sonication.” left out, “USA).” for “USA). The separated protein was then transferred to a nitrocellulose membrane. The membrane was blocked with BSA and incubated with primary antibody overnight at 4° C.”, “For quantifying expression of a protein, the densitometric value for the protein of interest was normalized against beta-actin (loading control).” left out

PKC α [4] = target: T2, PKC α; test: PKC α activation (membrane translocation, immunoblot) in primary human neurons; set-up: host or cells: primary human cortical neurons
Procedure: as §2

Compound: CCC/C=C/C=C/C(=O)O[C@H]1/C(=C/C(=O)OC)C[C@H]2C[C@H]([C@@H](C)O)OC(=O)C[C@H](O)C[C@@H]3C[C@H](OC(C)=O)C(C)(C)[C@](O)(C[C@@H]4C/C(=C/C(=O)OC)C[C@H](/C=C/C(C)(C)[C@]1(O)O2)O4)O3 [bryostatin-1]
- PKC-ε activation, time course (PKC ε [1]; 0.25 nM, 1 hr, 4 hr and 24 hr (FIG. 2B)): induced PKC-ε activation
- PKC ε activation (percentage of total protein in the membrane, percentage of control) (PKC ε [1]; 0.060-1.0 nM, 24 hr (FIG. 1)): activated both PKC ε and PKC α
- PKC ε activation at about 1 nM (PKC ε [1]; about 1 nM, 24 hr): potent activation of both PKC ε and PKC α
- PKC ε activation at low concentrations (PKC ε [1]; low concentrations, 24 hr): potent PKC ε activation
- PKC α activation (PKC α [2]): activated both PKC ε and PKC α
- PKC ε activation (PKC ε [3]): activated both PKC ε and PKC α
- PKC α activation (percentage of total protein in the membrane, percentage of control) (PKC α [4]; 0.060-1.0 nM, 24 hr (FIG. 1)): activated both PKC ε and PKC α
- PKC α activation at about 1 nM (PKC α [4]; about 1 nM, 24 hr): potent activation of both PKC ε and PKC α
